# Values of other authors, collected in paper PMC8250858, “A Systematic Study of the Stability, Safety, and Efficacy of the de novo Designed Antimicrobial Peptide PepD2 and Its Modified Derivatives Against Acinetobacter baumannii” (Frontiers in Microbiology, 2021).
# Key:
# A. baumannii = system: A. baumannii; design: method as in Sato et al., 2018; details: ref Sato et al., 2018; cited from earlier work
# A. baumannii 19606 = system: A. baumannii 19606; design: method as in Feng et al., 2013; details: ref Feng et al., 2013; cited from earlier work
# [1] = system: 20 strains of A. baumannii; design: method as in Huang et al., 2012; details: ref Huang et al., 2012; cited from earlier work
# [2] = system: carbapenem-resistant A. baumannii; design: method as in Huang et al., 2012; details: intraperitoneal injection twice a day for 3 days; ref Huang et al., 2012; cited from earlier work
substance,measurement,setting,value
colistin sulfate,MIC against A. baumannii,A. baumannii,2 µg/mL
LL-37: natural human antimicrobial peptide,MIC against A. baumannii 19606,A. baumannii 19606,16 µg/mL
C(LLKK)2C,MIC against 20 strains of A. baumannii,[1],40 to 75 µg/mL
same,Mice rescued,[2],rescued half of the mice
